Patent US8772448B2, “Peptides immunoreactive with autoantibodies from patients suffering from rheumatoid arthritis” (Stichting Voor de Technische Wetenschappen, priority 1996, dated 2014)
Where no end group is shown, it is not given here. [ ]: non-standard residue; d: D form. Cit = NC(=O)NCCC[C@H](N)C(=O)O

How the values were obtained:
Assay type in all cases: binding, human
[1] = tested on: autoimmune antibodies in sera from patients suffering from rheumatoid arthritis; assay: ELISA of coupled peptides with RA sera; conditions: for immunological reactivity in ELISA: RA sera; for RA sera (%) positive / RA sera: number of positive sera: n = 134 RA sera, positive = OD450 of 0.2 after deduction of blank; for RA sera: number of positive sera: sera diluted 200 times
Procedure: (§1) Detection by Means of ELISA
Via an N-oxysuccinimide surface the peptides were covalently coupled to the wells of 96-well microtitre plates (Costar amide binding plates) in an amount of 1 ? g/well. Coupling took place for 16 hours at 4EC and pH 9.0. The plates were blocked for 1 hour with 2% bovine serum albumin. The sera were diluted 200 times in a diluent (0.3% BSA, 350 mM NaCl, 10 mM Tris-HCl pH 7.6, 1% vol./vol. Triton X-100, 0.5% w./vol. Na-deoxycholate, 0.1% SDS) supplemented with 10% normal rabbit serum, and incubated for one hour at room temperature. After washing the plates (3 times with PBS containing 0.05 by vol. of Tween® 20), 100 ? l of antihuman IgG conjugated with peroxidase (Dako P214), 1000 times diluted in dilution buffer, was added to the wells. After incubation for 1 hour at room temperature, the plates were washed 3 times with PBS/Tween®, and bound antibodies were detected with tetramethyl benzidine as a substrate. After 10 minutes the reaction was stopped by adding 100 ? l of 2 M sulphuric acid per well. Readout occurred at 450 nm. Sera having an OD450 of 0.2, after deduction of the blank for the respective serum (a well without a coupled peptide), were considered to be positive. […]

[2] = tested on: antibodies in PM/DM (polymyositis/dermatomyositis) sera; assay: ELISA of coupled peptides with PM/DM sera; conditions: n = 50
Procedure: as §1
(§2) Via an N-oxysuccinimide surface the peptides were covalently coupled to the wells of 96-well microtitre plates (Costar amide binding plates) in an amount of 1 ? g/well. Coupling took place for 16 hours at 4EC and pH 9.0. The plates were blocked for 1 hour with 2% bovine serum albumin. The sera were diluted 200 times in a diluent (0.3% BSA, 350 mM NaCl, 10 mM Tris-HCl pH 7.6, 1% vol./vol. Triton X-100, 0.5% w./vol. Na-deoxycholate, 0.1% SDS) supplemented with 10% normal rabbit serum, and incubated for one hour at room temperature. After washing the plates (3 times with PBS containing 0.05 by vol. of Tween® 20), 100 ? l of antihuman IgG conjugated with peroxidase (Dako P214), 1000 times diluted in dilution buffer, was added to the wells. After incubation for 1 hour at room temperature, the plates were washed 3 times with PBS/Tween®, and bound antibodies were detected with tetramethyl benzidine as a substrate. After 10 minutes the reaction was stopped by adding 100 ? l of 2 M sulphuric acid per well. Readout occurred at 450 nm. Sera having an OD450 of 0.2, after deduction of the blank for the respective serum (a well without a coupled peptide), were considered to be positive.

[3] = tested on: antibodies in SSC (systemic scleroderma) sera; assay: ELISA of coupled peptides with SSC sera; conditions: n = 50
Procedure: as §1, §2

[4] = tested on: antibodies in control sera from patients suffering from rheumatic diseases other than RA; assay: ELISA of coupled peptides with control sera; conditions: n = 154; rheumatic diseases other than RA
Procedure: as §1, §2
In total, 288 sera from patients suffering from rheumatoid diseases were used, 132 of which were from patients suffering from rheumatoid arthritis.

[5] = tested on: antibodies in pSS (primary Sjögren's syndrome) sera; assay: ELISA of coupled peptides with pSS sera; conditions: n = 50
Procedure: as §1, §2

[6] = tested on: antibodies in SLE (systemic lupus erythematosus) sera; assay: ELISA of coupled peptides with SLE sera; conditions: n = 50
Procedure: as §1, §2

ESSHGWTGPSTRGRQGSRHE [nf, reference compound]
immunological reactivity in ELISA [1]: not

SHQESTAGRSRGRSGRSGS [cfA, reference compound]
immunological reactivity in ELISA [1]: did not seem to be immunologically reactive

SHQESTEGRSRGRSGRSGS [cfE, reference compound]
immunological reactivity in ELISA [1]: did not seem to be immunologically reactive

SHQESTQGRSRGRSGRSGS [cfQ, reference compound]
immunological reactivity in ELISA [1]: did not seem to be immunologically reactive

SHQESTRGRSRGRSGRSGS (Derived from known cDNA sequences of human profilaggrin) [cf, reference compound]
immunological reactivity in ELISA [1]: did not seem to be immunologically reactive

SHQESTRGRSRGRSGXSGS (SHQESTRGRSRGRSG[Cit]SGS-NH2; N-terminus assumed; SMILES C[C@@H](O)[C@H](NC(=O)[C@H](CO)NC(=O)[C@H](CCC(=O)O)NC(=O)[C@H](CCC(N)=O)NC(=O)[C@H](Cc1c[nH]cn1)NC(=O)[C@@H](N)CO)C(=O)N[C@@H](CCCNC(=N)N)C(=O)NCC(=O)N[C@@H](CCCNC(=N)N)C(=O)N[C@@H](CO)C(=O)N[C@@H](CCCNC(=N)N)C(=O)NCC(=O)N[C@@H](CCCNC(=N)N)C(=O)N[C@@H](CO)C(=O)NCC(=O)N[C@@H](CCCNC(N)=O)C(=O)N[C@@H](CO)C(=O)NCC(=O)N[C@@H](CO)C(N)=O) [cfc5]
PM/DM (%) positive [2]: 2% | PM/DM: number of positive sera [2]: 1 | SSC (%) positive [3]: 2% | SSC: number of positive sera [3]: 1 | control sera (%) positive [4]: 0.6% | control sera: number of positive sera [4]: 1 | pSS (%) positive [5]: 4% | pSS: number of positive sera [5]: 2 | RA sera (%) positive [1]: 48% | RA sera: number of positive sera [1]: 64 | SLE: number of positive sera [6]: 0

SHQESTRGRSRGXSGRSGS (SHQESTRGRSRG[Cit]SGRSGS-NH2; N-terminus assumed; SMILES C[C@@H](O)[C@H](NC(=O)[C@H](CO)NC(=O)[C@H](CCC(=O)O)NC(=O)[C@H](CCC(N)=O)NC(=O)[C@H](Cc1c[nH]cn1)NC(=O)[C@@H](N)CO)C(=O)N[C@@H](CCCNC(=N)N)C(=O)NCC(=O)N[C@@H](CCCNC(=N)N)C(=O)N[C@@H](CO)C(=O)N[C@@H](CCCNC(=N)N)C(=O)NCC(=O)N[C@@H](CCCNC(N)=O)C(=O)N[C@@H](CO)C(=O)NCC(=O)N[C@@H](CCCNC(=N)N)C(=O)N[C@@H](CO)C(=O)NCC(=O)N[C@@H](CO)C(N)=O) [cfc4]
PM/DM: number of positive sera [2]: 0 | SSC: number of positive sera [3]: 0 | control sera (%) positive [4]: 1.3% | control sera: number of positive sera [4]: 2 | pSS: number of positive sera [5]: 0 | RA sera (%) positive [1]: 24% | RA sera: number of positive sera [1]: 32 | SLE: number of positive sera [6]: 0

SHQESTRGRSXGRSGRSGS (SHQESTRGRS[Cit]GRSGRSGS-NH2; N-terminus assumed; SMILES C[C@@H](O)[C@H](NC(=O)[C@H](CO)NC(=O)[C@H](CCC(=O)O)NC(=O)[C@H](CCC(N)=O)NC(=O)[C@H](Cc1c[nH]cn1)NC(=O)[C@@H](N)CO)C(=O)N[C@@H](CCCNC(=N)N)C(=O)NCC(=O)N[C@@H](CCCNC(=N)N)C(=O)N[C@@H](CO)C(=O)N[C@@H](CCCNC(N)=O)C(=O)NCC(=O)N[C@@H](CCCNC(=N)N)C(=O)N[C@@H](CO)C(=O)NCC(=O)N[C@@H](CCCNC(=N)N)C(=O)N[C@@H](CO)C(=O)NCC(=O)N[C@@H](CO)C(N)=O) [cfc3]
PM/DM (%) positive [2]: 2% | PM/DM: number of positive sera [2]: 1 | SSC: number of positive sera [3]: 0 | control sera (%) positive [4]: 0.6% | control sera: number of positive sera [4]: 2 | pSS (%) positive [5]: 2% | pSS: number of positive sera [5]: 1 | RA sera (%) positive [1]: 28% | RA sera: number of positive sera [1]: 37 | SLE: number of positive sera [6]: 0

SHQESTRGXSRGRSGRSGS (SHQESTRG[Cit]SRGRSGRSGS-NH2; N-terminus assumed; SMILES C[C@@H](O)[C@H](NC(=O)[C@H](CO)NC(=O)[C@H](CCC(=O)O)NC(=O)[C@H](CCC(N)=O)NC(=O)[C@H](Cc1c[nH]cn1)NC(=O)[C@@H](N)CO)C(=O)N[C@@H](CCCNC(=N)N)C(=O)NCC(=O)N[C@@H](CCCNC(N)=O)C(=O)N[C@@H](CO)C(=O)N[C@@H](CCCNC(=N)N)C(=O)NCC(=O)N[C@@H](CCCNC(=N)N)C(=O)N[C@@H](CO)C(=O)NCC(=O)N[C@@H](CCCNC(=N)N)C(=O)N[C@@H](CO)C(=O)NCC(=O)N[C@@H](CO)C(N)=O) [cfc2]
PM/DM (%) positive [2]: 2% | PM/DM: number of positive sera [2]: 1 | SSC: number of positive sera [3]: 0 | control sera (%) positive [4]: 2.6% | control sera: number of positive sera [4]: 4 | pSS (%) positive [5]: 2% | pSS: number of positive sera [5]: 1 | RA sera (%) positive [1]: 20% | RA sera: number of positive sera [1]: 27 | SLE (%) positive [6]: 2% | SLE: number of positive sera [6]: 1

SHQESTXGRSRGRSGXSGS (SHQEST[Cit]GRSRGRSG[Cit]SGS-NH2; N-terminus assumed; SMILES C[C@@H](O)[C@H](NC(=O)[C@H](CO)NC(=O)[C@H](CCC(=O)O)NC(=O)[C@H](CCC(N)=O)NC(=O)[C@H](Cc1c[nH]cn1)NC(=O)[C@@H](N)CO)C(=O)N[C@@H](CCCNC(N)=O)C(=O)NCC(=O)N[C@@H](CCCNC(=N)N)C(=O)N[C@@H](CO)C(=O)N[C@@H](CCCNC(=N)N)C(=O)NCC(=O)N[C@@H](CCCNC(=N)N)C(=O)N[C@@H](CO)C(=O)NCC(=O)N[C@@H](CCCNC(N)=O)C(=O)N[C@@H](CO)C(=O)NCC(=O)N[C@@H](CO)C(N)=O) [cfc9]
PM/DM: number of positive sera [2]: 0 | SSC: number of positive sera [3]: 0 | control sera (%) positive [4]: 0.6% | control sera: number of positive sera [4]: 1 | pSS (%) positive [5]: 4% | pSS: number of positive sera [5]: 2 | RA sera (%) positive [1]: 42% | RA sera: number of positive sera [1]: 57 | SLE: number of positive sera [6]: 0

SHQESTXGRSRGXSGRSGS (SHQEST[Cit]GRSRG[Cit]SGRSGS-NH2; N-terminus assumed; SMILES C[C@@H](O)[C@H](NC(=O)[C@H](CO)NC(=O)[C@H](CCC(=O)O)NC(=O)[C@H](CCC(N)=O)NC(=O)[C@H](Cc1c[nH]cn1)NC(=O)[C@@H](N)CO)C(=O)N[C@@H](CCCNC(N)=O)C(=O)NCC(=O)N[C@@H](CCCNC(=N)N)C(=O)N[C@@H](CO)C(=O)N[C@@H](CCCNC(=N)N)C(=O)NCC(=O)N[C@@H](CCCNC(N)=O)C(=O)N[C@@H](CO)C(=O)NCC(=O)N[C@@H](CCCNC(=N)N)C(=O)N[C@@H](CO)C(=O)NCC(=O)N[C@@H](CO)C(N)=O) [cfc8]
PM/DM (%) positive [2]: 2% | PM/DM: number of positive sera [2]: 1 | SSC: number of positive sera [3]: 0 | control sera (%) positive [4]: 0.6% | control sera: number of positive sera [4]: 1 | pSS (%) positive [5]: 2% | pSS: number of positive sera [5]: 1 | RA sera (%) positive [1]: 41% | RA sera: number of positive sera [1]: 55 | SLE: number of positive sera [6]: 0

TGPSTRGRQGSXHE (TGPSTRGRQGS[Cit]HE-NH2; N-terminus assumed; SMILES C[C@@H](O)[C@H](N)C(=O)NCC(=O)N1CCC[C@H]1C(=O)N[C@@H](CO)C(=O)N[C@H](C(=O)N[C@@H](CCCNC(=N)N)C(=O)NCC(=O)N[C@@H](CCCNC(=N)N)C(=O)N[C@@H](CCC(N)=O)C(=O)NCC(=O)N[C@@H](CO)C(=O)N[C@@H](CCCNC(N)=O)C(=O)N[C@@H](Cc1c[nH]cn1)C(=O)N[C@@H](CCC(=O)O)C(N)=O)[C@@H](C)O) [nfc1]
RA sera (%) positive [1]: 10%
